Data: publication PMC6356164, “Identification of a novel lactose oxidase in Myrmecridium flexuosum NUK‐21” (FEBS Open Bio, 2019)

System: T1, lactose oxidase (LOD)
T1 construct: native enzyme purified from wheat bran solid culture; 2 Zn per mole, no FAD or heme
Assay: peroxidase-4-aminoantipyrine assay, Hanes-Woolf plot
Type: biochemical, Myrmecridium flexuosum
Conditions: 50 mM Tris-HCl pH 7.8, 30 °C, O2 as acceptor
Description: peroxidase-4-aminoantipyrine assay, Hanes-Woolf plot on lactose oxidase (LOD)

[1] = substrate inhibition above 1 mM

Km [1] [µM]	Km [µM]	Compound
63	–	OC[C@H]1O[C@@H](O[C@H]2[C@H](O)[C@@H](O)C(O)O[C@@H]2CO)[C@H](O)[C@@H](O)[C@@H]1O (stereo partly drawn) [Cellobiose]
76	–	OC[C@H]1O[C@@H](O[C@H]2[C@H](O)[C@@H](O)C(O)O[C@@H]2CO)[C@H](O)[C@@H](O)[C@H]1O (stereo partly drawn) [Lactose]
–	22000	OC[C@H]1O[C@H](O[C@H]2[C@H](O)[C@@H](O)C(O)O[C@@H]2CO)[C@H](O)[C@@H](O)[C@@H]1O (stereo partly drawn) [Maltose]
